For 1 molecule, Kd results are on record in paper PMC6073580, “DPIE [2-(1,2-diphenyl-1H-indol-3-yl)ethanamine] Augments Pro-Inflammatory Cytokine Production in IL-1β-Stimulated Primary Human Oral Cells” (International Journal of Molecular Sciences, 2018).

The target of this assay is T1, IL-1R1 (interleukin-1 receptor, type I) (Homo sapiens, UniProt P14778).
T1 construct: gene IL1R1
T1 sequence (P14778 18-569): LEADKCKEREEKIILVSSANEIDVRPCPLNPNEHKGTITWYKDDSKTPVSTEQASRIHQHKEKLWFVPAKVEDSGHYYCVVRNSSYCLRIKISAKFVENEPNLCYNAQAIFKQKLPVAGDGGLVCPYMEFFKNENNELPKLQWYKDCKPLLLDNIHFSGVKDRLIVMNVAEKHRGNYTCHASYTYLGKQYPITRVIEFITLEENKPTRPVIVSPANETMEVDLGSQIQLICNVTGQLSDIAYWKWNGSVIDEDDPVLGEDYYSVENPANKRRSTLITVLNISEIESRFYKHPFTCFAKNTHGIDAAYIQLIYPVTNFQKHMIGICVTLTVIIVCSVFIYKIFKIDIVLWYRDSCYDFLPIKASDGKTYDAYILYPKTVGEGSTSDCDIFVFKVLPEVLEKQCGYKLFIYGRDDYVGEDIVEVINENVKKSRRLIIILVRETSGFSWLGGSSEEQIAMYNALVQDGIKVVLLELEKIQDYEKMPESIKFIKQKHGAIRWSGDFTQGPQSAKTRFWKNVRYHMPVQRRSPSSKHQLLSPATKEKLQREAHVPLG
Nature of the assay: SPR (ProteOn XPR36), IL-1R1 immobilized by amine coupling, […] Langmuir kinetic fit; equilibrium analysis gave […]. It is filed as binding.

The Kd is the concentration at which binding is half-saturated. The molecule `NCCc1c(-c2ccccc2)n(-c2ccccc2)c2ccccc12` [DPIE, 2-(1,2-diphenyl-1H-indol-3-yl)ethanamine] displayed an equilibrium dissociation constant (Kd) of 316 µM.
